According to article PMC10418426, “A Comprehensive Technology Platform for the Rapid Discovery of Peptide Inhibitors against SARS-CoV-2 Pseudovirus Infection” (International Journal of Molecular Sciences, 2023):
Starred links: 1 amine or outer side, 2 acyl side, 3 side chain; linkers in the order of their positions; H or OH if unused. Positions of bridges follow the written chain, without caps; N, C: chain ends. Residues, ends and D or L forms follow the SMILES beside them. mXylylene = c1cc(C[*:1])cc(C[*:2])c1

System: HEK293-ACE2 cells
Conditions: 1 to 100 μM, 24 h treatment plus 24 h in fresh medium, absorbance 560 nm

For C[C@@H](O)[C@@H]1NC(=O)[C@@H]2CCCN2C(=O)[C@H](CCC(N)=O)NC(=O)[C@@H](N)CSCc2cccc(c2)CSC[C@@H](C(N)=O)NC(=O)[C@H](CCC(N)=O)NC(=O)[C@H](Cc2c[nH]c3ccccc23)NC(=O)CNC(=O)[C@H](CCCCN)NC(=O)CNC(=O)[C@H](CC(N)=O)NC1=O [c9_05] (H-CQPTNGKGWQC-NH2; linker 1-11 via mXylylene), the “effect on cell viability (MTT)” value was “did not cause any significant decrease in cell viability”.
